Data reported in ChEMBL document CHEMBL5390277, “Development of N-Terminally Modified Variants of the CXCR4-Antagonistic Peptide EPI-X4 for Enhanced Plasma Stability” (J Med Chem, 2023).
Square brackets hold non-standard residues; d marks the D form. Peptide text beside a SMILES is read from it.

How the values were obtained:
[1] = target: T1, C-X-C chemokine receptor type 4 (Homo sapiens, UniProt P61073); experiment: Displacement of 12G5 antibody from CXCR4 in human SUP-T1 cells as fold increase in apparent IC50 in presence of human plasma media by flow cytometry based competitive analysis; type: cell-based; details: filed as antagonist
[2] = target: T1, C-X-C chemokine receptor type 4; experiment: Displacement of 12G5 antibody from CXCR4 in human SUP-T1 cells assessed as stability of the compound by measuring remaining activity in presence of human plasma media at 20 uM by flow cytometry based competitive analysis relative to control; type: cell-based
[3] = tested on: Human immunodeficiency virus 1; experiment: Antiviral activity against HIV-1 NL4-3 infected in human TZM-bl cells assessed as inhibition of viral replication preincubated for 15 mins followed by viral infection and measured after 4320 mins by beta-gal screening assay; type: functional, organism-based; details: Human immunodeficiency virus 1, NL4-3, TZM
[4] = target: T1, C-X-C chemokine receptor type 4; experiment: Displacement of 12G5 mAb from CXCR4 in human SUP-T1 cells incubated for 2 hrs by flow cytometry analysis; type: cell-based
[5] = Toxicity in Zebrafish embryo incubated for 24 hrs by microscopic analysis; design: species or system Danio rerio; details: in vivo
SUP-T1 = experiment: Inhibition of cell migration in human SUP-T1 cells assessed as inhibition of CXCL12 mediated cell migration incubated for 4 hrs in presence of chemoattractant, CXCL12 by Transwell based CellTiter-Glo-chemotaxis assay; type: functional
[6] = Stability in C57BL/6 mouse plasma assessed as compound remaining at 3.5 mg/kg,iv administration and measured after 30 mins in presence of fluorescent labeled CXCR4 antibody and CXCR4 expressing human SUP-T1 cells by antibody-competition based flow cytometry assay; type: ADME, organism-based; details: in vivo, 0.5 h
[7] = target: T1, C-X-C chemokine receptor type 4; experiment: Antagonist activity at CXCR4 (unknown origin) expressed in human HEK293T cells co-expressing SmBiT-beta-arrestin2 preincubated with compound for 10 mins followed by CXCL12 stimulation and measured for 120 mins by beta-arrestin2 recruitment based NanoBiT assay; type: functional, cell-based
[8] = target: T1, C-X-C chemokine receptor type 4; experiment: Antagonist activity at CXCR4 in human SUP-T1 cells assessed as inhibition of CXCL12-induced ERK phosphorylation preincubated with 15 mins followed by CXCL12 stimulation and measured after 12 mins by flow cytometry analysis; type: functional, cell-based
[9] = target: T1, C-X-C chemokine receptor type 4; experiment: Displacement of 12G5 antibody from CXCR4 in human SUP-T1 cells as fold increase in apparent IC50 in presence of human plasma media incubated for 8 hrs by flow cytometry based competitive analysis; type: cell-based; details: filed as antagonist
[10] = target: T1, C-X-C chemokine receptor type 4; experiment: Displacement of 12G5 antibody from CXCR4 in human SUP-T1 cells in presence of human plasma media incubated for 8 hrs by flow cytometry based competitive analysis; type: cell-based
[11] = target: T1, C-X-C chemokine receptor type 4; experiment: Displacement of 12G5 antibody from CXCR4 in human SUP-T1 cells in presence of human plasma media incubated for 2 hrs by flow cytometry based competitive analysis; type: cell-based
[12] = Stability in human plasma assessed as half life measured upto 120 mins by mass spectrometry method; type: ADME, cell-free

T1 sequence (P61073 whole entry): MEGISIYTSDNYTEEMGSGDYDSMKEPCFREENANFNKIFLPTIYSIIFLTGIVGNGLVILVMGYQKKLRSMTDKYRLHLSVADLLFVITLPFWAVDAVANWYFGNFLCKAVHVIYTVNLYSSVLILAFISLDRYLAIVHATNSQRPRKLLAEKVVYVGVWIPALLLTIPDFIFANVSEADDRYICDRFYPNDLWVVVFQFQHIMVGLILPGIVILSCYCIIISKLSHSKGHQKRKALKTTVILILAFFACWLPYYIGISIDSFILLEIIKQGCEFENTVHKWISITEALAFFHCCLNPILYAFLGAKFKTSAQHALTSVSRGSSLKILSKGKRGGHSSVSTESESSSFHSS

fold change (FC) [1]	Activity [2] [%]	IC50 [3] [nM]	IC50 [4] [nM]	Stability [6]	IC50 [7] [nM]	IC50 [8] [nM]	fold change (FC) [9]	IC50 [10] [nM]	IC50 [11] [nM]	half-life [12] [min]	Compound	Activity [5]	inhibition (SUP-T1)
1	100	1990	263	Stable	92	6750	1.1				CC[C@@H](C)[C@@H](N)C(=O)N[C@@H](CC(C)C)C(=O)N[C@@H](CCCNC(=N)N)C(=O)N[C@@H](Cc1c[nH]c2ccccc12)C(=O)N[C@@H](CO)C(=O)N[C@@H](CCCNC(=N)N)C(=O)N[C@@H](CCCCN)C(N)=O (H-[dI]LRWSRK-NH2)	Non-Toxic	Dose-Dependent Effect
1	100			Unstable				1590	476		CC[C@H](C)[C@H](N)C(=O)N[C@@H](CC(C)C)C(=O)N[C@@H](CCCNC(=N)N)C(=O)N[C@@H](Cc1c[nH]c2ccccc12)C(=O)N[C@@H](CO)C(=O)N[C@@H](CCCNC(=N)N)C(=O)N[C@@H](CCCCN)C(=O)N[C@@H](CC(C)C)C(=O)N1CCC[C@H]1C(=O)N[C@@H](CS)C(=O)N[C@H](C(=O)N[C@@H](CO)C(=O)O)C(C)C		
		562	345			8050				5.2	CC[C@H](C)[C@H](N)C(=O)N[C@H](C(=O)N[C@@H](CCCNC(=N)N)C(=O)N[C@@H](Cc1c[nH]c2ccccc12)C(=O)N[C@@H](CO)C(=O)N[C@@H](CCCCN)C(=O)N[C@@H](CCCCN)C(=O)N[C@H](C(=O)N1CCC[C@H]1C(=O)N[C@@H](CS)C(=O)N[C@H](C(=O)N[C@@H](CO)C(=O)O)C(C)C)C(C)C)C(C)C (H-IVRWSKKVPCVS-OH)		
